Laboratory results: patent publication US20150133426A1, “SUBSTITUTED PYRROLOPYRIMIDINES” (BAYER PHARMA AKTIENGESELLSCHAFT, priority 2012, published 2015)

Target: T1, human full-length MKNK1 (Homo sapiens, UniProt Q9BUB5, T385D)
T1 construct: purchased Carna Biosciences 02-145; host or cells: insect cells, baculovirus expression system
Assay: MKNK1 kinase high ATP assay (TR-FRET)
Type: biochemical
Settings: high ATP (2 mM), 15 min preincubation with enzyme, GST-MKNK1 (T344D)
In short: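 GST-tagged full-length human MKNK1 (aa 1-424, T344D), baculovirus-expressed, preincubated 15 min with compound, then reacted 30 min at 22 °C with 2 mM ATP and 0.06 µM biotinylated peptide (final).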

T1 sequence (Q9BUB5 1-424 isoform Q9BUB5-2 T344D): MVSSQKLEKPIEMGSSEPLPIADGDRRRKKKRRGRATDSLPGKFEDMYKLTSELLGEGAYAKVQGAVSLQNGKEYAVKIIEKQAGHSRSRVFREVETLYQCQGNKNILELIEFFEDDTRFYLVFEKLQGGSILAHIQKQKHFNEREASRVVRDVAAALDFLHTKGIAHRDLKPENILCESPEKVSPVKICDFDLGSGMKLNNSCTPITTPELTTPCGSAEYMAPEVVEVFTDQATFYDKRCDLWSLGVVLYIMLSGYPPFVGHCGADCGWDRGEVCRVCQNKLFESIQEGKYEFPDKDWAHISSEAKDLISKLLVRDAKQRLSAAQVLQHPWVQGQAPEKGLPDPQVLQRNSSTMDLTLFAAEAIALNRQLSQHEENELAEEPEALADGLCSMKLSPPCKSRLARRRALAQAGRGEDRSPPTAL

IC50 [nM] | SMILES
24 | FC1(F)CCc2[nH]c3ncnc(Nc4ccc5[nH]ncc5c4)c3c2C1 [Example 10, 6,6-Difluoro-N-(1H-indazol-5-yl)-6,7,8,9-tetrahydro-5H-pyrimido[4,5-b]indol-4-amine]
38 | O=c1[nH]c2ccc(Nc3ncnc4[nH]c5c(c34)CC(F)(F)CC5)cc2s1 [Example 142]

Further lines, the compound ahead of its results:

SMILES | IC50 [nM]
CS(=O)(=O)CCCNC(=O)C1CCc2[nH]c3ncnc(Nc4ccccc4OC4CCOCC4)c3c2C1 (racemic) [Example 79, (RS)—N-[3-(Methylsulfonyl)propyl]-4-{[2-(tetrahydro-2H-pyran-4-yloxy)phenyl]amino}-6,7,8,9-tetrahydro-5H-pyrimido[4,5-b]indole-6-carboxamide] | 58
O=C(O)C1CCc2[nH]c3ncnc(Nc4ccc(F)cc4OCCO)c3c2C1 (racemic) [Example 182, (RS)-4-{[4-Fluoro-2-(2-hydroxyethoxy)phenyl]amino}-6,7,8,9-tetrahydro-5H-pyrimido[4,5-b]indole-6-carboxylic acid] | 251
c1ccc2c(c1)CCN2c1ncnc2[nH]c3c(c12)CCCC3 [Example 120] | 8350
